Test results published in patent US11180516B2, “Phosphine transition metal complex, method for producing same, and anticancer agent” (Nippon Chemical Industrial Co., Ltd., priority 2018, dated 2021).

Legend:
[1] = Solubility test in aqueous surfactant solution (HPLC); conditions: 150 μL surfactant (Tween 80:propylene glycol 2:1) + 850 μL 5% by mass aqueous glucose solution
Method: The solubility was determined by the following HPLC analysis.
For the HPLC analyzer, Prominence HPLC system (LC-20AD, Shimadzu Corporation) was used. For the detector, UV detector SPD-20A (Shimadzu Corporation, detection wavelength 249 nm) was used, and for the column, XR-ODS (3 mm i.d.×100 mm, particle diameter 2.2 μm) manufactured by Shimadzu Corporation was used. The mobile phase was methanol:water:TFA=90:10:0.05 (v/v), the column temperature was 40° C., and the flow rate was 0.5 mL/min.
Each of the weighed samples was placed in 150 μL of surfactants, and the mixture was stirred sufficiently. Then, 850 μL of 5% by mass aqueous glucose solution was added, and the mixture was further stirred at room temperature (25° C.). This solution was passed through a 0.2 μm membrane filter, and the filtrate was diluted 50-fold by volume with methanol:water (9:1) to obtain a preparation solution for HPLC analysis.
The prepared samples were transferred to vials, and set in an autosampler. The analysis was performed by injecting each sample by 1 μL.
Based on the relationship between the weight of the weighed sample and the area of the peak in the obtained chromatogram, the solubility of the phosphine transition metal complex was evaluated.

[2] = tested on: A549 (human lung cancer cells); assay: Anticancer activity, WST-8 viable cell assay, A549; format: cell-based; conditions: 48 hours culture, mean of three experiments, read-out: IC50 (50% cell growth inhibitory concentration)
Method: (§1) As a control, cisplatin was tested in the same way.
(§2) A549 (human lung cancer cells), NCI-H460 (human lung cancer cells), MKN45 (human gastric cancer cells), NCI-N87 (human gastric cancer cells), A2780 (human ovarian cancer cells), A2780cis (human ovarian cancer cells, cisplatin-resistant cells) were used as cancer cells, and cultured in Roswell Park Memorial Institute medium (RPMI1640) supplemented with 10 volume % fetal bovine serum and 100 Units/mL penicillin and 100 μg/mL streptomycin under 5 volume % carbon dioxide atmosphere by wet incubation at 37° C.
(§3) Cells were washed with phosphate buffered saline (PBS), the cell count was calculated, and then 5×10^4 cells/ml suspension was prepared using the same medium. The suspension was added to a sterile 96-well microplate at a density of 2500 cells/well.
(§4) Thereafter, viable cell counts were evaluated by WST-8 assay. In other words, a solution of water-soluble tetrazolium salt WST-8 was added, and then the cells were cultured in an incubator for 1 hour. Absorbance at 450 nm of water-soluble formazan generated by enzymatic activity of mitochondria in cells was measured with a microplate reader (Spectra Max PLUS; Molecular Devices). This was evaluated as viable cell counts, and 50% cell growth inhibitory concentration (IC50) was calculated. It should be noted that the mean of the values of three experiments performed in the same way was adopted for the calculation of IC50 value.

[3] = tested on: NCI-H460 (human lung cancer cells); assay: Anticancer activity, WST-8 viable cell assay, NCI-H460; format: cell-based; conditions: 48 hours culture, mean of three experiments, read-out: IC50 (50% cell growth inhibitory concentration)
Method: as §1, §2, §3, §4

[4] = tested on: MKN45 (human gastric cancer cells); assay: Anticancer activity, WST-8 viable cell assay, MKN45; format: cell-based; conditions: 48 hours culture, mean of three experiments, read-out: IC50 (50% cell growth inhibitory concentration)
Method: as §1, §2, §3, §4

[5] = tested on: NCI-N87 (human gastric cancer cells); assay: Anticancer activity, WST-8 viable cell assay, NCI-N87; format: cell-based; conditions: 48 hours culture, mean of three experiments, read-out: IC50 (50% cell growth inhibitory concentration)
Method: as §1, §2, §3, §4

[6] = tested on: A2780 (human ovarian cancer cells); assay: Anticancer activity, WST-8 viable cell assay, A2780; format: cell-based; conditions: 48 hours culture, mean of three experiments, read-out: IC50 (50% cell growth inhibitory concentration)
Method: as §1, §2, §3, §4

[7] = tested on: A2780cis (human ovarian cancer cells, cisplatin-resistant cells); assay: Anticancer activity, WST-8 viable cell assay, A2780cis; format: cell-based; conditions: 48 hours culture, mean of three experiments, read-out: IC50 (50% cell growth inhibitory concentration)
Method: as §1, §2, §3, §4

| Compound | Solubility (25° C.) [1] [mg/mL] | IC50 [2] [nM] | IC50 [3] [nM] | IC50 [4] [nM] | IC50 [5] [nM] | IC50 [6] [nM] | IC50 [7] [nM] |
| --- | --- | --- | --- | --- | --- | --- | --- |
| CP(c1nc2ccccc2nc1P(C)C(C)(C)C)C(C)(C)C.CP(c1nc2ccccc2nc1P(C)C(C)(C)C)C(C)(C)C.[Au+].[Cl-] (stereo not shown) [Comparative Example 1, bis(2,3-bis(tert-butylmethylphosphino)quinoxaline)gold(I) chloride] | 25.5 |  |  |  |  |  |  |
| bis[(R,R)-1,2-bis(t-butylmethylphosphino)benzene]gold(I) chloride [Example 1] |  | 66 | 250 | 250 | 1400 | 280 | 95 |
| CP(c1ccccc1P(C)C(C)(C)C)C(C)(C)C.CP(c1ccccc1P(C)C(C)(C)C)C(C)(C)C.[Au+].[Cl-] [Example 2, bis[(S,S)-1,2-bis(t-butylmethylphosphino)benzene]gold(I) chloride] |  | 580 | 690 | 530 | 2100 | 1100 | 560 |
| N.N.[Cl][Pt][Cl] [Cisplatin, cisplatin, reference compound] |  | 6000 | 3300 | 5200 | 42000 | 2800 | 28000 |
